From paper PMC10247784, “Physiological activation of human and mouse bitter taste receptors by bile acids” (Communications Biology, 2023)
Values joined by “and” are separate entries in the source; they are usually repeats but may differ in a detail not shown here. Identical values can stand only once.

Biological target: T1, human TAS2R1 (Homo sapiens, UniProt Q9NYW7)
T1 construct: expressed in transfected cells; host or cells: HEK293T-Gα16gust44
T1 sequence (Q9NYW7 1-299): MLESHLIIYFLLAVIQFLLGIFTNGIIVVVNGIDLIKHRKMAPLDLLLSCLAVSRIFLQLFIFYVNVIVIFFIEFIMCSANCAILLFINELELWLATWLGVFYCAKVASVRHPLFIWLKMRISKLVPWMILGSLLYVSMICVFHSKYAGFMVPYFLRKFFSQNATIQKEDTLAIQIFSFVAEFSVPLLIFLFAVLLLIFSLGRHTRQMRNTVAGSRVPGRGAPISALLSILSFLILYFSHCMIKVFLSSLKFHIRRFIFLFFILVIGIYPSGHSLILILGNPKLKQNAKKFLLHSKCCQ
Experiment: Calcium imaging assay (FLIPR), HEK293T-Gα16gust44 cells transfected with human TAS2R1
Type: cell-based
In short: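 Bile acids from DMSO stocks are applied to dye-loaded cells one day after transient receptor transfection, and calcium-dependent fluorescence is recorded. Maximum signal is standardized to basal and normalized to buffer-only wells, with empty-vector signal subtracted.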

C[C@H](CCC(=O)NCCS(=O)(=O)O)[C@H]1CC[C@H]2[C@@H]3CC[C@@H]4C[C@H](O)CC[C@]4(C)[C@H]3CC[C@]12C [Taurolithocholic Acid, taurolithocholic acid] was tested, and the “Efficacy = maximal amplitude (ΔF/F)” value (TAS2R1, bile acids, mean) was 0.1277, the “Efficacy (maximal amplitude ΔF/F), individual data points” value (TAS2R1, bile acids, single replicates, listed as TLCA) was 0.1258 and 0.1227 and 0.1699 and 0.1221 and 0.09796 and the RLU (Time 0 s (second time grid)) was 0 RLU. It also gave an RLU (Time 2 s) of -8.765 RLU, an RLU (Time 4 s) of 34.6882 RLU and an RLU (Time 6 s) of 11.8088 RLU. For the same molecule, the RLU (Time 8 s) was 18.099 RLU, the RLU (Time 12 s) was 15.1496 RLU and the RLU (Time 14 s) was 13.1492 RLU. It also gave an RLU (Time 16 s) of 0.9458 RLU, an RLU (Time 18 s) of 9.703 RLU and an RLU (Time 18.781 s) of 5.165 RLU. For the same molecule, the RLU (Time 20.781 s) was 27.2472 RLU, the RLU (Time 22.781 s) was 1.644 RLU and the RLU (Time 24.781 s) was -21.8293 RLU. The RLU (Time 26.781 s) was 33.0454 RLU, the RLU (Time 28.781 s) was 106.888 RLU and the RLU (Time 30.781 s) was 183.135 RLU. The RLU (Time 32.781 s) was 270.143 RLU, the RLU (Time 34.781 s) was 337.182 RLU and the RLU (Time 36.781 s) was 405.016 RLU. For the same molecule, the RLU (Time 38.781 s) was 448.367 RLU, the RLU (Time 40.781 s) was 483.096 RLU and the RLU (Time 42.781 s) was 511.157 RLU. For the same molecule, the RLU (Time 44.781 s) was 542.077 RLU, the RLU (Time 46.781 s) was 572.975 RLU and the RLU (Time 48.781 s) was 599.496 RLU. It also gave an RLU (Time 50.781 s) of 624.238 RLU, an RLU (Time 52.781 s) of 642.403 RLU and an RLU (Time 54.781 s) of 649.802 RLU. It also gave an RLU (Time 56.781 s) of 680.566 RLU, an RLU (Time 58.781 s) of 693.048 RLU and an RLU (Time 60.781 s) of 676.887 RLU. The RLU (Time 62.781 s) was 735.967 RLU, the RLU (Time 64.781 s) was 726.535 RLU and the RLU (Time 66.781 s) was 712 RLU. For the same molecule, the RLU (Time 68.781 s) was 708.17 RLU, the RLU (Time 70.781 s) was 740.519 RLU and the RLU (Time 72.781 s) was 720.827 RLU. For the same molecule, the RLU (Time 74.781 s) was 715.629 RLU, the RLU (Time 76.781 s) was 740.295 RLU and the RLU (Time 78.781 s) was 736.469 RLU. For the same molecule, the RLU (Time 80.781 s) was 705.753 RLU, the RLU (Time 82.781 s) was 719.776 RLU and the RLU (Time 84.781 s) was 729.602 RLU. The RLU (Time 86.781 s) was 717.016 RLU, the RLU (Time 88.781 s) was 708.528 RLU and the RLU (Time 90.781 s) was 685.914 RLU. It also gave an RLU (Time 92.781 s) of 709.593 RLU, an RLU (Time 94.781 s) of 708.426 RLU and an RLU (Time 96.781 s) of 665.125 RLU. The RLU (Time 98.781 s) was 639.76 RLU, the RLU (Time 100.781 s) was 661.017 RLU and the RLU (Time 102.781 s) was 653.391 RLU. The RLU (Time 104.781 s) was 622.006 RLU, the RLU (Time 106.781 s) was 616.277 RLU and the RLU (Time 108.781 s) was 602.431 RLU. It also gave an RLU (Time 110.781 s) of 574.352 RLU, an RLU (Time 112.781 s) of 593.769 RLU and an RLU (Time 114.781 s) of 553.55 RLU. The RLU (Time 116.781 s) was 583.964 RLU, the RLU (Time 118.781 s) was 539.304 RLU and the RLU (Time 120.781 s) was 524.165 RLU. For the same molecule, the RLU (Time 122.781 s) was 518.27 RLU, the RLU (Time 124.781 s) was 503.611 RLU and the RLU (Time 126.781 s) was 474.132 RLU. The RLU (Time 128.781 s) was 435.021 RLU, the RLU (Time 130.781 s) was 439.84 RLU and the RLU (Time 132.781 s) was 420.045 RLU. It also gave an RLU (Time 134.781 s) of 393.577 RLU, an RLU (Time 136.781 s) of 395.556 RLU and an RLU (Time 137.547 s) of 402.14 RLU. The RLU (Time 143.547 s) was 371.698 RLU, the RLU (Time 149.547 s) was 331.65 RLU and the RLU (Time 155.547 s) was 280.988 RLU. For the same molecule, the RLU (Time 161.547 s) was 237.537 RLU, the RLU (Time 167.547 s) was 191.55 RLU and the RLU (Time 173.547 s) was 185.568 RLU. It also gave an RLU (Time 179.547 s) of 137.711 RLU, an RLU (Time 185.547 s) of 105.562 RLU and an RLU (Time 191.547 s) of 24.299 RLU. The RLU (Time 197.547 s) was 1.672 RLU, the RLU (Time 203.547 s) was -7.55 RLU and the RLU (Time 209.547 s) was -39.8614 RLU. The RLU (Time 215.547 s) was -81.387 RLU, the RLU (Time 221.547 s) was -74.4232 RLU and the RLU (Time 227.547 s) was -79.2952 RLU. The RLU (Time 233.547 s) was -69.562 RLU, the RLU (Time 239.547 s) was -81.6561 RLU and the RLU (Time 245.547 s) was -72.3962 RLU. It also gave an RLU (Time 293.547 s) of -154.558 RLU, an RLU (Time 299.547 s) of -170.989 RLU and an RLU (calcium trace, sheet TAS2R1, Time 305.547 s) of -184.97 RLU. It also gave an RLU (calcium trace, sheet TAS2R1, Time 311.547 s) of -208.123 RLU, an RLU (calcium trace, sheet TAS2R1, Time 317.547 s) of -201.311 RLU and an RLU (calcium trace, sheet TAS2R1, Time 323.547 s) of -236.998 RLU. It also gave an RLU (calcium trace, sheet TAS2R1, Time 329.547 s) of -230.646 RLU, an RLU (calcium trace, sheet TAS2R1, Time 335.547 s) of -241.48 RLU and an RLU (calcium trace, sheet TAS2R1, Time 341.547 s) of -222.174 RLU. For the same molecule, the RLU (calcium trace, sheet TAS2R1, Time 347.547 s) was -215.316 RLU, the RLU (calcium trace, sheet TAS2R1, Time 353.547 s) was -228.211 RLU and the RLU (calcium trace, sheet TAS2R1, Time 359.547 s) was -233.286 RLU. The EC50 (calculated where receptor saturation was reached) was 1.9 µM and the “Activation threshold concentration TAS2R1” value (lowest concentration with significantly increased fluorescence vs empty vector (p < 0.01)) was 0.3 µM and 0.30 µM.
